Experimental data from patent publication US6110962A, “11-aryl-benzo[B]naphtho[2,3-D]furans and 11-aryl-benzo[B]naphtho[2,3-D]thiophenes useful in the treatment of insulin resistance and hyperglycemia” (American Home Products Corporation, priority 1999, dated 2000).

Test system: rat hepatic microsomal PTPases
Settings: PTPase activity, compound at 50 μM

Structure (SMILES)	% Change from Control [%]
BrC[C@@H](Cc1ccccc1)Oc1c(Br)cc(-c2c3ccccc3c(Br)c3sc4ccccc4c23)cc1Br [Example 174, (R)-6-Bromo-11-[3,5-dibromo-4-(1-bromomethyl-2-phenyl-ethoxy)-phenyl]-benzo[b]naphtho[2,3-d]thiophene]	0.39
O=C(O)COc1ccc2c(c1)sc1cc3ccccc3c(-c3ccc(O[C@H](CCN4C(=O)c5ccccc5C4=O)C(=O)O)cc3)c12 [Example 149]	-59.82
O=C(O)COc1c(Br)cc(-c2c3c(c(Br)c4ccccc24)S(=O)(=O)c2ccccc2-3)cc1Br [Example 186]	-74.87
O=P(O)(O)C(CCc1ccccc1)Oc1c(Br)cc(-c2c3ccccc3c(Br)c3sc4ccccc4c23)cc1Br (stereo not drawn) [Example 164]	-70.32
CC(=O)Oc1ccc(-c2c3ccccc3cc3sc4ccccc4c23)cc1 [Example 34, 4-(Benzo[b]naphtho[2,3-d]thiophen-11-yl-phenol)acetate ester]	-3.40
O=C(O)COc1ccc(-c2c3ccccc3c(Br)c3sc4ccccc4c23)cc1OCC(=O)O [Example 93]	-58.35
CS(=O)(=O)Oc1ccc(-c2c3ccccc3c(I)c3sc4ccccc4c23)cc1 [Example 47, Methanesulfonic acid 4-(6-Iodo-benzo[b]naphtho[2,3-d]thiophen-11-yl)-phenylester]	-3.50
Oc1ccc(-c2c3ccccc3cc3sc4cc(O)ccc4c23)cc1 [Example 15, 11-(4-Hydroxy-phenyl)-benzo[b]naphtho[2,3-d]thiophen-3-ol]	-43.68
O=C(O)[C@@H](CCN1C(=O)c2ccccc2C1=O)Oc1c(Br)cc(-c2c3ccccc3c(Br)c3sc4ccccc4c23)cc1Br [Example 147, (R)-2-[2,6-Dibromo-4-(6-bromo-benzo[b]naphtho[2,3-d]thiophen-11-yl)-phenoxy]-4-(1,3-dioxo-1,3-dihydro-isoindol-2-yl)-butyric acid]	-66.60
O=P(O)(O)COc1ccc(-c2c3ccccc3cc3sc4ccccc4c23)cc1 [Example 163, [4-(Benzo[b]naphtho[2,3-d]thiophen-11-yl)-phenoxymethyl]-phosphonic acid]	-38.40
O=C(O)COc1c(Br)cc(-c2c3ccccc3c(Br)c3c2c2ccccc2[s+]3[O-])cc1Br (stereo not drawn) [Example 187]	-57.64
O=C(O)COc1ccc(-c2c3ccccc3cc3oc4ccccc4c23)cc1 [Example 213, 4-(Benzo[b]naphtho[2,3-d]furan-11-yl-phenoxy)-acetic acid]	-54.40
O=C(O)COc1ccc(-c2c3ccccc3cc3sc4cc(OCC(=O)O)ccc4c23)cc1 [Example 74, [11-(4-Carboxymethoxy-phenyl)-benzo[b]naphtho[2,3-d]thiophen-3-yloxy]-acetic acid]	-21.61
O=C(O)COc1cc(Br)c(-c2c3ccccc3c(Br)c3sc4ccccc4c23)cc1OCC(=O)O [Example 95]	-75.45
CCOP(=O)(OCC)C(CCc1ccccc1)Oc1c(Br)cc(-c2c3ccccc3c(Br)c3sc4ccccc4c23)cc1Br (stereo not drawn) [Example 161, {1-2,6-Dibromo-4-(6-bromo-benzo[b]naphtho[2,3-d]thiophen-11-yl)-phenoxyl-3-phenyl-propyl}-phosphonic acid, diethyl ester]	-8.03
Cc1cc(-c2c3ccccc3c(C)c3sc4ccccc4c23)cc(C)c1O [Example 25, 2,6-Dimethyl-4-(6-methyl-benzo[b]naphtho[2,3-d]thiophen-11-yl)-phenol]	-38.31
Oc1ccc(-c2c3ccccc3cc3sc4ccccc4c23)cc1 [Example 14, 4-Benzo[b]naphtho[2,3-d]thiophen-11-yl-phenol]	-34.19
O=C(O)COc1ccc(-c2c3ccc(OCC(=O)O)cc3cc3sc4ccccc4c23)cc1 [Example 76, [11-(4-Carboxymethoxy-phenyl)-benzo[b]naphtho[2.3-d]thiophen-8-yloxy]-acetic acid]	-18.89
